Reference: US9795602B2, “Polycyclic-carbamoylpyridone compounds and their pharmaceutical use” (Gilead Sciences, Inc., priority 2014, dated 2017)

Columns and labels:
[1] = Cytotoxicity (CC50) in MT4 cells, mock-infected; assay type: cell-based; conditions: human, mock-infected
In short: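 Uninfected MT4 cells, 2000 per well, incubated with compound 5 days at 37 °C. Viability by CellTiter-Glo luminescence after 2–3 min lysis at room temperature.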

HIV-1 E138K/Q148K = assay type: cell-based; conditions: MT2 cells; mean EC50 mutant / mean EC50 wt
Description: (§1) For the antiviral assay utilizing MT-2 cells, 50 μL of 2× test concentration of 3-fold serially diluted compound in culture medium with 10% FBS was added to each well of a 96-well plate (9 concentrations) in triplicate. MT-2 cells were infected with wild-type or mutant variants of HIV-1 for 3 hours using a volume of viral inoculum determined to produce 90% cell killing. Fifty microliters of infected cell suspension in culture medium with 10% FBS (˜1.5×10^4 cells) was then added to each well containing 50 μL of serially diluted compound. The plates with HIV-infected cultures were then incubated at 37° C. for 5 days in the presence of the tested compounds. After 5 days of incubation, 100 μL of CellTiter-Glo™ Reagent (catalog # G7571, Promega Biosciences, Inc., Madison, Wis.) was added to each well. Cell lysis was carried out by incubating at room temperature for 10 min followed by a chemiluminescence read-out.
(§2) The chemiluminescence readout from the 10-point antiviral dose response was analyzed directly by curve fitting with equation (I) to determine the EC50.
(§3) where y=Cell Survival, M=maximum cell survival enabled by drug protection, H=baseline cell survival without drug protection, n=Hill coefficient of the antiviral dose response, m=Hill coefficient of the cytotoxicity dose response, and [I]=inhibitor concentration.
(§4) EC50 values (mean±standard deviation) were calculated from at least three independent experiments performed in triplicate. The fold-change in antiviral activity of tested compounds was calculated as a ratio of the mean EC50 for each mutant virus divided by the mean EC50 of the control WT virus.

HIV-1 E92Q/N155H = assay type: cell-based; conditions: MT2 cells; mean EC50 mutant / mean EC50 wt
Description: as §1, §2, §3, §4

HIV-1 G140S/Q148R = assay type: cell-based; conditions: MT2 cells; mean EC50 mutant / mean EC50 wt
Description: as §1, §2, §3, §4

HIV-1 N155H/Q148R = assay type: cell-based; conditions: MT2 cells; mean EC50 mutant / mean EC50 wt
Description: as §1, §2, §3, §4

wild-type HIV-1 = test: Antiviral assay in MT-2 cells, wild-type HIV-1; assay type: cell-based; conditions: Human immunodeficiency virus 1, 120 h; MT2 cells, wild-type HIV-1, 5 days; read-out: wt
Description: as §1, §2, §3, §4

[2] = Plasma protein binding (equilibrium dialysis); assay type: in vitro ADME; conditions: human, plasma (sodium EDTA) dialysed against buffer; 2 μM in plasma vs. buffer, 24 hours at 37° C.; read-out: % Free HP/Buffer
Description: Plasma protein binding was determined using a HTD96b equilibrium dialyzer with a plate base, stainless steel pressure plate and Teflon bock. 9 Teflon bars, labeled sequentially from A through I, were assembled with two stainless steel connecting rods. Membranes were placed between two Teflon bars, with the membrane placed approximately 2 mm below the top edge of the bar and the lower membrane edge overlapped the bottom of all wells. The membrane was soaked for about 20 minutes in water, about 20 minutes in ethanol (30/70 v/v) and rinsed with water three times to remove the ethanol. It was soaked in PBS for at least 30 minutes. Plasma in sodium EDTA (Bioreclamation or equivalent) was used. The Plasma (not pH-adjusted) was stored at −80° C. and thawed at room temperature before use. The stock solution of the compounds tested was at 200 μM in DMSO. The quench solution used was 50 nM of an internal standard in 100% ACN. To prepare a 2 μM solution of the compound tested in plasma, 5 μL of a 200 μM stock solution was added to 495 μL of blank plasma. 100 μL plasma was added with 2 μM of test compound into one side of the well. 100 μL of buffer (for plasma vs. buffer) was added into another side of the well. The 96-well plate was covered using an adhesive sealing film and incubated for 24 hours at 37° C. under slow rotation. This procedure was replicated for each compound. 50 μL of plasma sample was put into a 96 well plate, 50 μL of buffer was added. 50 μL of buffer was put into a 96 well plate. 50 μL of plasma was added. 300 μL of quench solution was added and the plate sealed and shaken for 15 minutes. The material was centrifuged for 30 minutes at 3000 RPM and ˜250 μL was transferred into a short plate. The samples were analyzed by LC/MS. The resulting data is shown in the last row of Table 3 as “% Free” which corresponds to the percentage of compound not protein bound.

| Compound | CC50 at 5 days [1] [µM] | Resistance fold shift E138K/Q148K vs. wild type (HIV-1 E138K/Q148K) [fold shift] | Resistance fold shift E92Q/N155H vs. wild type (HIV-1 E92Q/N155H) [fold shift] | Resistance fold shift G140S/Q148R vs. wild type (HIV-1 G140S/Q148R) [fold shift] | Resistance fold shift N155H/Q148R vs. wild type (HIV-1 N155H/Q148R) [fold shift] | EC50 (wild-type HIV-1) [nM] | fraction unbound at 24 h, 2 µM [2] |
| --- | --- | --- | --- | --- | --- | --- | --- |
| CCN1C(=O)c2c(O)c(=O)c(C(=O)NCc3ccc(F)c(Cl)c3F)cn2[C@H]2CCO[C@H]21 [Compound 25b] | 26.7 | 2.3 | 2.2 | 1.9 | 2.2 | 1.4 | < 0.001 |
| CCN1C(=O)c2c(O)c(=O)c(C(=O)NCc3ccc(F)c(Cl)c3F)cn2[C@H]2CCOC[C@H]21 [Compound 39] | 12.8 | 1.5 | 2.3 | 1.8 | 2.8 | 0.9 | 0.0067 |
